Experimental data published in patent US8563472B2 (priority 2010, dated 2013).

Tests used:
[1] = test system: Leptosphaeria nodorum (LEPTNO); test: In vitro fungitoxicity assay against Leptosphaeria nodorum in copper-minus / copper-plus liquid medium; type: cell-based; details: test compound 0.05 μg/mL, 25° C., 72 h; for inhibition of growth at 0.05 µg/mL: Parastagonospora nodorum, copper-minus medium, growth by light scattering, read-out: LEPTNO % Inhn. Minus Copper Observed; for LEPTNO % Inhn. Plus Copper Observed: copper-plus medium (CuCl2.2H2O)
Protocol: In vitro fungitoxicity assays against Leptosphaeria nodorum (LEPTNO) were conducted using the liquid growth medium described by Coursen and Sisler (American Journal of Botany 1960, 47, 541-549) except that copper micronutrient, normally included as CuSO4, was omitted. The medium, termed “copper-minus”, was prepared by dissolving 10 g glucose, 1.5 g K2HPO4, 2 g KH2PO4 and 1 g (NH4)2SO4 in 1 liter of deionized water and treating the solution with 0.5 g Chelex 100 resin (Bio-Rad Analytical grade, 50-100 mesh, sodium form, cat#142-2822) by stirring at room temperature for 1 h. MgSO4.7H2O (0.5 g) was added, and stirring was continued for a further hour. Trace elements (minus CuSO4), and vitamins described by Coursen and Sisler were added from concentrated stock solutions and the entire medium was sterilized by filtration. Medium containing copper was prepared by adding CuCl2.2H2O to the copper-minus medium at 20 μM. […] Copper-minus medium (100 μL) was added to one of the wells and copper-plus medium to the second well. Control wells, included for each medium, received 1 μL DMSO and 100 μL of medium.
LEPTNO was grown on potato dextrose agar in 9 cm diameter petri dishes for 7 days (d). Sterile deionized water (20 mL) was added to a culture plate and spores suspended by scraping the surface gently with a sterile plastic loop. The resulting suspension was filtered through a double layer of sterile cheesecloth. […] The spores were resuspended in copper-minus medium, and the suspension adjusted to 2×10^5 spores per mL. Microtiter plates were inoculated with 100 μL of this spore suspension and the plates incubated at 25° C. for 72 h before assessing fungal growth by measuring light scattering in a NepheloStar plate reader. Growth inhibition was determined by comparing growth in the presence of test compound with growth in control wells lacking test compound.

Phytophthora infestans = type: in vivo; details: hydrazone 50 ppm with 50 μM CuCl2.2H2O, applied 24 h before inoculation, tomato plants, assessed 7 d after inoculation

| SMILES | inhibition of growth at 0.05 µg/mL [1] [%] | LEPTNO % Inhn. Plus Copper Observed [1] [%] | melting point [°C] | TLB % control (Phytophthora infestans) [%] |
| --- | --- | --- | --- | --- |
| C/C(=N\NC(=O)c1cnn(-c2ccc(Cl)cc2)c1C(F)(F)F)c1cc(Cl)cc(Cl)c1O [Compound 41] | 0 | 71.3 | 209 to 211 | 36 |
| C/C(=N\NC(=O)c1cn(-c2ccccc2)nc1O)c1cc(Cl)cc(Cl)c1O [Compound 42] | 3.5 | 91.2 | 269 to 271 | 2 |
| C/C(=N\NC(=O)c1sc(C)nc1C)c1cc(Cl)cc(Cl)c1O [Compound 43] | 0 | 94.3 | 208 to 209 | 66 |
| C/C(=N\NC(=O)c1ccc(Cl)s1)c1cc(Cl)cc(Cl)c1O [Compound 44] | 2 | 96.9 | 221 to 224 | 68 |
| C/C(=N\NC(=O)c1csc(C)c1)c1cc(Cl)cc(Cl)c1O [Compound 45] | 3.7 | 98.3 | 218 to 220 | 83 |
| C/C(=N\NC(=O)c1ccoc1C)c1cc(Cl)cc(Cl)c1O [Compound 46] | 0 | 97.2 | 212 to 215 | 69 |
| C/C(=N\NC(=O)c1ccsc1)c1cc(Cl)cc(Cl)c1O [Compound 47] | 0 | 98.1 | 230 to 232 | 81 |
| C/C(=N\NC(=O)c1cnn(-c2ccc(Cl)cc2)c1C(F)(F)F)c1cc(Br)cc(Br)c1O [Compound 48] | 4.3 | 56 | 121 to 125 | 19 |
| C/C(=N\NC(=O)c1sc(C)nc1C)c1cc(Br)cc(Br)c1O [Compound 49] | 2.6 | 89.1 | 221 to 223 | 61 |
| C/C(=N\NC(=O)c1ccc(Cl)s1)c1cc(Br)cc(Br)c1O [Compound 50] | 0 | 97.5 | 253 to 255 | 85 |
| C/C(=N\NC(=O)c1csc(C)c1)c1cc(Br)cc(Br)c1O [Compound 51] | 2.2 | 98 | 237 to 239 | 88 |
| C/C(=N\NC(=O)c1ccoc1C)c1cc(Br)cc(Br)c1O [Compound 52] | 0 | 97.7 | 201 to 204 | 66 |
| C/C(=N\NC(=O)c1ccsc1)c1cc(Br)cc(Br)c1O [Compound 53] | 7.6 | 97.6 | 251 to 253 | 73 |
| CN1CCCCC1C(=O)N/N=C/c1cc(Cl)cc(Cl)c1O (centres unmarked) [Compound 54, 1-methyl-piperidine-2-carboxylic acid [1-(3,5-dichloro-2-hydroxy-phenyl)-methylidene]-hydrazide] | 0 | 91 | 107 to 110 | 22 |
